Measurements from PubChem BioAssay AID1963834 (Molecular Pharmacology Branch, DTP, NCI, 2024).

Test system: 873145-292-R-J1-PDC complex spheroid viability
Assay: Anticancer human tumor 873145-292-R-J1-PDC patient-derived renal clear cell carcinoma cell line growth inhibition [POLQ]
Details: for IC50: curve of first compound; for viability, T/C: stronger effect = lower value; active = viability on the fitted dose curve at most 10% of control; inactive = the rest
Summary of the method: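 Growth inhibition in 3D: complex spheroids (tumor PDC, HUVEC, MSC) treated with POLQ inhibitor combinations; where Cmax unknown, highest tested concentration 10 microM, except SN-38 at 1 microM.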

[1] = second compound 0.0316 µM, first compound 0.0316 µM
[2] = second compound 0.0316 µM, first compound 0.1 µM
[3] = second compound 0.0316 µM, first compound 0.316 µM
[4] = second compound 0.0316 µM, first compound 1 µM
[5] = second compound 0.0316 µM, first compound 3.16 µM
[6] = second compound 0.0316 µM, first compound 10 µM
[7] = second compound 0.1 µM, first compound 0.0316 µM
[8] = second compound 0.1 µM, first compound 0.1 µM
[9] = second compound 0.1 µM, first compound 0.316 µM
[10] = second compound 0.1 µM, first compound 1 µM
[11] = second compound 0.1 µM, first compound 3.16 µM
[12] = second compound 0.1 µM, first compound 10 µM
[13] = second compound 0.316 µM, first compound 0.0316 µM
[14] = second compound 0.316 µM, first compound 0.1 µM
[15] = second compound 0.316 µM, first compound 0.316 µM
[16] = second compound 0.316 µM, first compound 1 µM
[17] = second compound 0.316 µM, first compound 3.16 µM
[18] = second compound 0.316 µM, first compound 10 µM
[19] = second compound 1 µM, first compound 0.0316 µM
[20] = second compound 1 µM, first compound 0.1 µM
[21] = second compound 1 µM, first compound 0.316 µM
[22] = second compound 1 µM, first compound 1 µM
[23] = second compound 1 µM, first compound 3.16 µM
[24] = second compound 1 µM, first compound 10 µM
[25] = second compound 3.16 µM, first compound 0.0316 µM
[26] = second compound 3.16 µM, first compound 0.1 µM
[27] = second compound 3.16 µM, first compound 0.316 µM
[28] = second compound 3.16 µM, first compound 1 µM
[29] = second compound 3.16 µM, first compound 3.16 µM
[30] = second compound 3.16 µM, first compound 10 µM
[31] = second compound 10 µM, first compound 0.0316 µM
[32] = second compound 10 µM, first compound 0.1 µM
[33] = second compound 10 µM, first compound 0.316 µM
[34] = second compound 10 µM, first compound 1 µM
[35] = second compound 10 µM, first compound 3.16 µM
[36] = second compound 10 µM, first compound 10 µM
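Note: spheroids exposed to compounds for 7 days before viability readout.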
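Throughout, for viability, T/C: luminescence signal used as surrogate for viable cell content; 100% = DMSO vehicle control viability.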

C=CC(=O)N1CCN(c2nc(=O)n(-c3c(C)ccnc3C(C)C)c3nc(-c4c(O)cccc4F)c(F)cc23)C(C)C1 (stereo not drawn) + Cc1cccc(N(C)C(=O)C2C(O)CCN2c2nc(C)cc(C(F)(F)F)c2C#N)c1
inactive: viability, T/C [1] 103% | viability, T/C [2] 108% | viability, T/C [3] 107% | viability, T/C [4] 120% | viability, T/C [5] 141% | viability, T/C [6] 138% | viability, T/C [7] 104% | viability, T/C [8] 110% | viability, T/C [9] 115% | viability, T/C [10] 133% | viability, T/C [11] 128% | viability, T/C [12] 126% | viability, T/C [13] 108% | viability, T/C [14] 111% | viability, T/C [15] 119% | viability, T/C [16] 123% | viability, T/C [17] 143% | viability, T/C [18] 125% | viability, T/C [19] 114% | viability, T/C [20] 100% | viability, T/C [21] 111% | viability, T/C [22] 123% | viability, T/C [23] 144% | viability, T/C [24] 117% | viability, T/C [25] 105% | viability, T/C [26] 110% | viability, T/C [27] 106% | viability, T/C [28] 111% | viability, T/C [29] 136% | viability, T/C [30] 124% | viability, T/C [31] 110% | viability, T/C [32] 101% | viability, T/C [33] 103% | viability, T/C [34] 111% | viability, T/C [35] 120% | viability, T/C [36] 128%
> 10000 nM: IC50 (second compound 0.0316 µM) | IC50 (second compound 0.1 µM) | IC50 (second compound 0.316 µM) | IC50 (second compound 1 µM) | IC50 (second compound 3.16 µM) | IC50 (second compound 10 µM)

CC1COCCN1c1cc(-c2ccnn2C)c2ccnc(-c3ccn[nH]3)c2n1 (stereo not drawn) + Cc1cccc(N(C)C(=O)C2C(O)CCN2c2nc(C)cc(C(F)(F)F)c2C#N)c1
1080 nM: IC50 (second compound 0.0316 µM)
inactive: viability, T/C [1] 90.6% | viability, T/C [2] 79.1% | viability, T/C [3] 68.1% | viability, T/C [4] 46.1% | viability, T/C [5] 48.6% | viability, T/C [6] 43.1% | viability, T/C [7] 99.3% | viability, T/C [8] 87.7% | viability, T/C [9] 74.3% | viability, T/C [10] 54.5% | viability, T/C [11] 39.9% | viability, T/C [12] 45.4% | viability, T/C [13] 95.1% | viability, T/C [14] 90.6% | viability, T/C [15] 69% | viability, T/C [16] 53.3% | viability, T/C [17] 47% | viability, T/C [18] 36.1% | viability, T/C [19] 92.3% | viability, T/C [20] 80.5% | viability, T/C [21] 67.7% | viability, T/C [22] 50.4% | viability, T/C [23] 46.6% | viability, T/C [24] 44.4% | viability, T/C [25] 101% | viability, T/C [26] 88% | viability, T/C [27] 71.4% | viability, T/C [28] 47% | viability, T/C [29] 44.1% | viability, T/C [30] 40.5% | viability, T/C [31] 91.6% | viability, T/C [32] 82.9% | viability, T/C [33] 69% | viability, T/C [34] 46.5% | viability, T/C [35] 42% | viability, T/C [36] 40.2%
1600 nM: IC50 (second compound 0.1 µM)
1530 nM: IC50 (second compound 1 µM)
987 nM: IC50 (second compound 3.16 µM)
1540 nM: IC50 (second compound 0.316 µM)
895 nM: IC50 (second compound 10 µM)

CC1COCCN1c1cc(C2(O)CC3CCC(C2)O3)c2cnn(-c3ccn[nH]3)c2n1 (stereo not drawn) + COC1C(OC(N)=O)C(O)C(Oc2ccc3c(O)c(NC(=O)c4ccc(O)c(CC=C(C)C)c4)c(=O)oc3c2C)OC1(C)C
691 nM: IC50 (second compound 10 µM)
311 nM: IC50 (second compound 0.316 µM)
423 nM: IC50 (second compound 0.0316 µM)
362 nM: IC50 (second compound 3.16 µM)
inactive: viability, T/C [1] 90.3% | viability, T/C [2] 71.8% | viability, T/C [3] 53.9% | viability, T/C [4] 40.4% | viability, T/C [5] 38.6% | viability, T/C [6] 37.2% | viability, T/C [7] 85.8% | viability, T/C [8] 67.2% | viability, T/C [9] 57.1% | viability, T/C [10] 43.6% | viability, T/C [11] 39.3% | viability, T/C [12] 38.5% | viability, T/C [13] 86.3% | viability, T/C [14] 72.9% | viability, T/C [15] 50.2% | viability, T/C [16] 40.2% | viability, T/C [17] 49.5% | viability, T/C [18] 37.7% | viability, T/C [19] 84.3% | viability, T/C [20] 68.6% | viability, T/C [21] 58.5% | viability, T/C [22] 38.9% | viability, T/C [23] 36.3% | viability, T/C [24] 37% | viability, T/C [25] 93.8% | viability, T/C [26] 73.5% | viability, T/C [27] 52.9% | viability, T/C [28] 38.3% | viability, T/C [29] 36.2% | viability, T/C [30] 38.5% | viability, T/C [31] 87.7% | viability, T/C [32] 71.9% | viability, T/C [33] 58.3% | viability, T/C [34] 45.6% | viability, T/C [35] 41.6% | viability, T/C [36] 40.9%
562 nM: IC50 (second compound 0.1 µM)
484 nM: IC50 (second compound 1 µM)

CC(C)n1c(=O)n(C)c2cnc3cc(F)c(-c4ccc(OCCCN5CCCCC5)nc4)cc3c21 + COC1C(OC(N)=O)C(O)C(Oc2ccc3c(O)c(NC(=O)c4ccc(O)c(CC=C(C)C)c4)c(=O)oc3c2C)OC1(C)C
inactive: viability, T/C [1] 96% | viability, T/C [2] 93% | viability, T/C [3] 99.2% | viability, T/C [4] 105% | viability, T/C [5] 92.8% | viability, T/C [6] 82.5% | viability, T/C [7] 94% | viability, T/C [8] 96.7% | viability, T/C [9] 92.9% | viability, T/C [10] 90% | viability, T/C [11] 100% | viability, T/C [12] 90.8% | viability, T/C [13] 95.5% | viability, T/C [14] 98.9% | viability, T/C [15] 109% | viability, T/C [16] 87.3% | viability, T/C [17] 104% | viability, T/C [18] 78.9% | viability, T/C [19] 105% | viability, T/C [20] 106% | viability, T/C [21] 92.9% | viability, T/C [22] 94.1% | viability, T/C [23] 90.8% | viability, T/C [24] 82.7% | viability, T/C [25] 96% | viability, T/C [26] 104% | viability, T/C [27] 98.7% | viability, T/C [28] 91.7% | viability, T/C [29] 90.5% | viability, T/C [30] 86.9% | viability, T/C [31] 96.2% | viability, T/C [32] 91.1% | viability, T/C [33] 104% | viability, T/C [34] 90.5% | viability, T/C [35] 107% | viability, T/C [36] 88.7%
> 10000 nM: IC50 (second compound 0.0316 µM) | IC50 (second compound 0.1 µM) | IC50 (second compound 0.316 µM) | IC50 (second compound 1 µM) | IC50 (second compound 3.16 µM) | IC50 (second compound 10 µM)
